# According to US20070098735A1, “Methods for the Elimination of Pathogens and Other Particulate Agents” (priority 2005, published 2007):
# B1: phosphorylase B (protein, UniProt P00489 2-843, looked up)
# Glycogen phosphorylase, …: SRPLSDQEKRKQISVRGLAGVENVTELKKNFNRHLHFTLVKDRNVATPRDYYFALAHTVRDHLVGRWIRTQQHYYEKDPKRIYYLSLEFYMGRTLQNTMVNLALENACDEATYQLGLDMEELEEIEEDAGLGNGGLGRLAACFLDSMATLGLAAYGYGIRYEFGIFNQKICGGWQMEEADDWLRYGNPWEKARPEFTLPVHFYGRVEHTSQGAKWVDTQVVLAMPYDTPVPGYRNNVVNTMRLWSAKAPNDFNLKDFNVGGYIQAVLDRNLAENISRVLYPNDNFFEGKELRLKQEYFVVAATLQDIIRRFKSSKFGCRDPVRTNFDAFPDKVAIQLNDTHPSLAIPELMRVLVDLERLDWDKAWEVTVKTCAYTNHTVLPEALERWPVHLLETLLPRHLQIIYEINQRFLNRVAAAFPGDVDRLRRMSLVEEGAVKRINMAHLCIAGSHAVNGVARIHSEILKKTIFKDFYELEPHKFQNKTNGITPRRWLVLCNPGLAEIIAERIGEEYISDLDQLRKLLSYVDDEAFIRDVAKVKQENKLKFAAYLEREYKVHINPNSLFDVQVKRIHEYKRQLLNCLHVITLYNRIKKEPNKFVVPRTVMIGGKAAPGYHMAKMIIKLITAIGDVVNHDPVVGDRLRVIFLENYRVSLAEKVIPAADLSEQISTAGTEASGTGNMKFMLNGALTIGTMDGANVEMAEEAGEENFFIFGMRVEDVDRLDQRGYNAQEYYDRIPELRQIIEQLSSGFFSPKQPDLFKDIVNMLMHHDRFKVFADYEEYVKCQERVSALYKNPREWTRMVIRNIATSGKFSSDRTIAQYAREIWGVEPSRQRLPAPDEKIP
# notes: control protein of molecular weight corresponding to the HSPs
# Legend:
# [1] = tested on: Murine macrophage lines (RAW264.7, J774.A1 or RAW264NO-); assay: Phagocytosis assay in vitro (uptake of Alexa Fluor 488-labeled particles); type: cell-based; design: effect of LR-disrupting drugs on HSP70-mediated phagocytosis: dose or concentration left out as unconfirmed; conditions: for uptake of labeled S. cerevisiae as compared to treatment with HSP70 (specificity controls): equimolar to HSP70 100 μg/ml, BSA 100 μg/ml, concavalin A 6 μg/ml, adjuvants 10 μl/well, ADP, ATP 3 mM
# Procedure: Phagocytosis Assay in vitro. RAW 264.7, RAW264.7 (NO-) and J774A.1 cells were cultured in DMEM or RPMI (RAW NO-) with 10% FCS, harvested, and washed. 3×10^5 cells/well were incubated in serum-free Earle's minimal essential medium (EMEM) in a 24-well plate for 1 hour at 37° C. Alexa Fluor® 488-labeled particles (inert polystyrene microspheres; or yeast, Saccharomyces cerevisiae or Gram-negative bacteria, Escherichia coli, 40 particles/macrophage) were added and co-incubated in a dark environment for 60 minutes in serum free EMEM with or without HSPs, LPS, or control proteins. At the end of 60 minutes incubation, the plate was covered in a dark container on ice. Specific measures were taken to exclude the fluorescence that resulted from particles that were outside of the cell or sticking to the surface of the cell. […] Specifically, trypan blue (0.8 mg/ml) was added for 60 seconds and plates were analyzed immediately using FluorImager SI (Molecular Dynamics/Amersham). Since the emission of Alexa Fluor® 488, about 519 nm at an excitation of about 490 nm, falls within the absorbance range of trypan blue (475-675 nm), the fluorescence of the sample only represents the intracellular fluorescence. External or surface-bound fluorescence is quenched. Using Student's t test, the results were analyzed and P-values were calculated.
# HSP-mediated phagocytosis was quantified by measuring the internalized fluorescence measured by FluorImager SI and Relative Mean Fluorescence Intensity (RMFI) was compared between the treatment groups (as indicated). All the treatment groups were compared to medium alone using the Student's t test and significance denoted by P<0.01. The error bar represents one standard deviation. The results shown are a cumulative analysis of 3 experiments, 3 wells/group.
# [2] = tested on: CD4+ T cells purified from spleens of DO 11.10 mice; assay: Proliferation of CD4+ T cells after MHC-II presentation of OVA-coated yeast by macrophages (FACS); type: cell-based; conditions: cytochalasin-D treatment
# Procedure: Proliferation of CD4+ T cells and INF-γ (interferon gamma) release. Unlabeled S. cerevisiae (80 μg) was incubated with excess chicken ovary albumin (OVA) at 37° C. for 1 hour and washed repeatedly to eliminate free OVA protein. S. cerevisiae-OVA complexes (OVA-coated yeast) were administered to macrophages treated with or without HSP70. Macrophages were then washed and irradiated at 12,000 rads and assessed for viability by trypan blue exclusion. Subsequently, they were co-cultured with CD4+ T lymphocytes that were purified from spleens of DO 11.10 mice and labeled with carboxyfluoroscein succinimidyl ester (CSFE). […] Following the 48-hour incubation, proliferation of CD4+ cells was determined with FACS and IFN-γ release in the supernatant was tested by enzyme-linked immunosorbent assay (ELISA; Pierce, Ill.).
# Alexafluor labeled S. cerevisiae were coated with whole ovalbumin (OVA) protein 1 mg/ml by co-incubation at 37° C. for 20 minutes and washed until free OVA protein was removed (washes were tested by gel electrophoresis using SDS-PAGE and immunoblotting). […] Resultant proliferation of the CSFE-labeled CD4+ was measured by FACS as an indirect measure of the amount of OVA protein processed and its peptide epitope presented in context of MHC-II. […]
# [3] = tested on: full thickness surgical wounds on the dorsum of BALB/cJ mice; assay: Closure of full thickness surgical wounds, percent wound closure; type: in vivo; conditions: day 2 post surgery; for wound healing on day 2: 30 μg/dose
# Procedure: Surgery and Treatment. Mice were anesthetized using Ketamine (2.0 mg/mouse) and Xylazine (0.1 mg/mouse) were administered intraperitoneally (IP) and the dorsal skin was shaved. After sterile prepping of the area, a full thickness circular wound, 8 mm diameter, was made on the dorsal skin using a disposable biopsy punch (Miltex Inc, York, Pa.) on the midline of the dorsum approximately at the iliac crest. The mice were then randomly assigned into the treatment groups. Initial wound measurements were performed while the mice were still anesthetized. Mice were then treated on days 0, 2, 4, and 6 unless otherwise specified. All agents used as treatment were diluted in 0.5 ml of PBS and injected using a 25-gauge needle in the subcutaneous space in the nape of the neck. The surgical procedures, post-operative monitoring, and safety concerns were approved by the Institutional Animal Care and Usage Committee.
# Measurements and Analysis. Wound healing of open wounds is a complex process with many parameters to consider. […] The wound surface area was determined by measuring the craniocaudal and lateromedial distances using vernier calipers in perpendicular axis on days 0, 2, 4, 6, 9, and 11 postoperatively unless noted. Changes in wound area were expressed as percent wound closure. Wound closure data was plotted as average percent wound closure ±SEM unless otherwise noted. All calculations and data analysis were performed using Microsoft Excel and Sigma Plot. Sigma Plot was used to perform Student's t-tests for reported P values.
# Full thickness surgical wounds were created on the dorsum of BALB/cJ mice as described in Methods. Wounds were made on day 0. Subsequently, the wounds were treated with exogenous injections of HSP70, HSP90, gp96 (30 μg/dose) or buffer administered subcutaneously (SC) on days 0, 2, 4 and 6 following surgery (FIG. 6A). The wounds were measured on days 0, 2, 4, 6, 9, 11 unless otherwise noted. Wounds were measured serially, percent wound closure was calculated and plotted against time in order to quantitate the rate of healing by secondary intention. […] Data is plotted as average percent wound closure ±SEM on days indicated. Two mice from each treatment group (PBS (n=12), HSP70 (n=11), HSP90 (n=12), and gp96 (n=11)) were sacrificed for histology on days 2, 4, and 6 post-surgery (data not shown). The P values obtain using the Student's t-test.
# Results are of average percent wound closure ±SEM on day 2 post surgery. The *P values were obtained using the Student's t-test by comparing HSP treatment to all of the non-HSP control treatments. The least significant P value was reported. […] Doses higher than 50 μg/dose were not tested.
molecule,measurement,setting,value
"Nc1ncnc2c1ncn2[C@@H]1O[C@H](COP(=O)(O)OP(=O)(O)O)[C@@H](O)[C@H]1O [ADP, adenosine diphosphate]",uptake of labeled S. cerevisiae as compared to treatment with HSP70 (specificity controls),[1],ineffective
"Nc1ncnc2c1ncn2[C@@H]1O[C@H](COP(=O)(O)OP(=O)(O)OP(=O)(O)O)[C@@H](O)[C@H]1O [ATP, adenosine triphosphate]",uptake of labeled S. cerevisiae as compared to treatment with HSP70 (specificity controls),[1],ineffective
"C=CCn1c(=O)n([C@@H]2O[C@H](CO)[C@@H](O)[C@H]2O)c2nc(N)[nH]c(=O)c21 [LRB, Loxoribine]",dose dependence of inhibitory effect on HSP70-mediated phagocytosis,"[1]; LRB 0-330 μM, HSP70 100 μg/ml",titratable by dose
"C=C1[C@@H](C)[C@H]2[C@H](Cc3ccccc3)NC(=O)[C@]23[C@H](OC(C)=O)/C=C/[C@@](C)(O)C(=O)[C@@H](C)C/C=C/[C@H]3[C@@H]1O [cytochalasin-D, reference compound]",effect on CD4+ proliferation caused by HSP70-treatment,[2],abrogated the proliferation caused by HSP70-treatment
same,effect on HSP70-mediated internalization (actin polymerization inhibited),[1]; cytochalasin-D 4 μM with HSP70,showed inhibition of the effects of HSP70
C[C@@H]1[C@H](O)[C@@H](C)/C=C/C=C/CC/C=C/C=C/C=C/C=C/C(O[C@H]2O[C@H](C)[C@@H](O)[C@H](N)[C@@H]2O)CC2O[C@](O)(CC(O)C(O)CCC(O)CC(O)CC(O)CC(=O)O[C@H]1C)CC(O)C2C(=O)O (some centres unmarked) [nystatin],effect of LR-disrupting drugs on HSP70-mediated phagocytosis,"[1]; nystatin or MCD, labeled yeast 40 particles/macrophage",HSP70-mediated phagocytosis was inhibited
"O=c1[nH]c(=O)c2[nH]c(=O)[nH]c2[nH]1 [uric acid, reference compound]",wound healing on day 2,[3],13%
same,wound closure of non-HSP controls compared to PBS control,[3],not significantly different to the PBS control
beta galactosidase,uptake of labeled S. cerevisiae as compared to treatment with HSP70 (specificity controls),[1],None of control proteins used enhanced uptake
bovine serum albumin [BSA],uptake of labeled S. cerevisiae as compared to treatment with HSP70 (specificity controls),[1],None of control proteins used enhanced uptake
concavalin A,uptake of labeled S. cerevisiae as compared to treatment with HSP70 (specificity controls),[1],None of control proteins used enhanced uptake
B1,uptake of labeled S. cerevisiae as compared to treatment with HSP70 (specificity controls),[1],None of control proteins used enhanced uptake
same,wound healing on day 2,[3],19%
same,wound closure of non-HSP controls compared to PBS control,[3],not significantly different to the PBS control
